# Earlier results as cited in patent US9974804B1, “Strontium-based composition, product, and method of using the same to control progression of osteoarthritis osteoporosis and tooth decay” (priority 2017, dated 2018).
# What was measured:
# [1] = supplemented in the human diet
# [2] = osteoporosis; daily doses of 6.4 grams for months to years
# [3] = compared to placebo group
# [4] = three-year daily use, compared to the control group
compound,measurement,setting,value
[Sr+2] [strontium],time after which fifty percent of bone strontium disappears,after strontium supplementation is discontinued,10 weeks
same,daily renal clearance relative to that of calcium,renal tubule excretion,about three
O=C([O-])[O-].[Sr+2] [strontium carbonate],tolerability / toxicity,[1],well tolerated without reported toxicity
CC(O)C(=O)[O-].CC(O)C(=O)[O-].[Sr+2] (stereo not drawn) [strontium lactate],marked subjective improvement,[2],84%
N#Cc1c(N(CC(=O)[O-])CC(=O)[O-])sc(C(=O)[O-])c1CC(=O)[O-].[Sr+2].[Sr+2] [strontium ranelate],increase in osteoblast activity parameters,[3],~10%
same,trabecular and cortical bone thickness,[3],14-18%
same,reduction in hip fracture,[4],36%
same,reduction in nonvertebral fracture,[4],19%
same,reduction in vertebral fracture,[4],~49%
